From US8765431B2, “Method for enzymatic production of decarboxylated polyketides and fatty acids” (The Regents of the University of Michigan, priority 2009, dated 2014)

Experiments:
CurM ST and TE = assay: Coupled ST-TE one-pot reaction (HPLC, LC-MS); format: biochemical, Lyngbya majuscula; conditions: from model substrate (3R)-1-ACP
Method: With the order of the ST and TE reactions established for the acyl-ACP intermediate, the next investigation was to couple the two reactions in one pot. […] Under the same reaction conditions, it was discovered that the CurM TE catalyzed hydrolysis reaction with sulfonated product (3R)-2-ACP was about 800-fold faster than with (3R)-1-ACP. Moreover, TE catalyzed hydrolysis of (3R)-2-ACP was about 120-fold faster than (3S)-2-ACP (FIG. 7).
Next, experiments were performed to assess whether the proposed sulfonated intermediate (3R)-2 (FIG. 3A) is released following hydrolysis of (3R)-2-ACP, or whether formation of 3 (FIG. 3B) occurs directly by a coordinated decarboxylative elimination process. First, the ST-TE coupled reactions with (3R)-1-ACP were analyzed by LC-MS and a single product was confirmed to be (3R)-2 by co-injection with the corresponding authentic standard (FIG. 3A iii). Due to the expected volatility of 3, the contents of the coupled reaction were extracted with hexane and analyzed by GC-MS. A second product was thus detected and confirmed to be 3 by co-injection with the corresponding authentic standard (FIG. 3B iv). […]
The ST and TE assays were performed using R)-1-ACP and (3S)-1-ACP substrates. […] All the reactions were incubated at room temperature, quenched by addition of 10% formic acid, and analyzed by reverse-phase HPLC using Jupiter C4 column. […]

CurM TE = assay: TE-catalyzed decarboxylative elimination to 3 (GC-MS); format: biochemical, Lyngbya majuscula; conditions: in 1 hour; free authentic (synthetic) substrate
Method: Next, experiments were performed to assess whether the proposed sulfonated intermediate (3R)-2 (FIG. 3A) is released following hydrolysis of (3R)-2-ACP, or whether formation of 3 (FIG. 3B) occurs directly by a coordinated decarboxylative elimination process. […] Due to the expected volatility of 3, the contents of the coupled reaction were extracted with hexane and analyzed by GC-MS. A second product was thus detected and confirmed to be 3 by co-injection with the corresponding authentic standard (FIG. 3B iv). […]
The ST and TE assays were performed using R)-1-ACP and (3S)-1-ACP substrates. […] All the reactions were incubated at room temperature, quenched by addition of 10% formic acid, and analyzed by reverse-phase HPLC using Jupiter C4 column. The ACP fractions were collected, lyophilized and analyzed by FTICR-MS and IRMPD. […]
The samples and authentic standard were analyzed by a 6890N gas chromatograph equipped with a 5973 mass selective quadrupole detector (Agilent). […] Total ion chromatograms were recorded using a mass range of 60-420 amu, and the selective ion chromatograms were recorded by monitoring the two to three most abundant masses plus the parent masses of target compounds.

Structure (SMILES): CCCCCCCCCC(C[C@H](CC(=O)O)OS(=O)(=O)O)OC (mixture of isomers) [(3R)-2, (3R,5RS)-3-Sulfonatooxy-5-methoxytetradecanoic acid]
- Level of (3R)-2 as a product of the TE reaction (CurM ST and TE): greater than 50%
- Conversion to 3 by TE (CurM TE): about 2 % conversion
